Test results taken from US9815790B2, “Chemically modified quinoline and quinolone derivatives useful as CB-1 inverse agonists” (Janssen Pharmaceutica NV, priority 2015, dated 2017).

Columns and labels:
[1] = target: CB-1 receptor (Human Cannabinoid receptor 1) (Homo sapiens (Human), UniProt P21554); assay: cAMP HTRF assay, CB-1 inverse agonism in stably transfected HEK-293 cells; assay type: cell-based; settings: 250 nM Forskolin, mean where tested more than once, read-out: CB1 EC50
Excerpt: (§1) CB1 and CB2 receptors are Gi-coupled GPCR. Activation of CB1 and CB2 receptors results in a decrease in cAMP production. An inverse agonist of the CB1 or CB2 receptor results in the opposite effect, an increase of cAMP production. The principle of this assay is based on HTRF® technology (Homogeneous Time-Resolved Fluorescence). The method is a competitive immunoassay between native cAMP produced by cells and the cAMP labeled with the fluorophore d2. The tracer binding is quantified by a Mab anti-cAMP labeled with Eu3+TBP-NHS Cryptate (supplied as part of the assay kit). The specific signal (i.e. energy transfer) is inversely proportional to the concentration of cAMP in the standard or sample.
(§2) Human CB (Cannabinoid receptor 1) was stably transfected in HEK-293 cells (DiscoveRx, cat: 93-0200C1). Human CB2R (Cannabinoid receptor 2) was stably transfected in HEK-293 cells (DiscoveRx, cat: 93-0201C1). Cell cultures were maintained in media: DMEM (Invitrogen Cat#12430-054) supplemented with 10% HI FBS (Invitrogen Cat#16140-071), 1% L-glutamine (Invitrogen Cat#25030-081), 0.2 mg/mL Hygromycin B (Invitrogen Cat#10687-010), 600 μg/mL G418 (Invitrogen Cat#10131-035), and 1× Penn/Strep (Invitrogen 15140-122). After cell expansion, aliquots were cryo-stored in media containing 5% DMSO (Pierce Cat#20684).
(§3) One day prior to experiments media was warmed to 37° C. and the cryo-stored cells were thawed in a 37° C. water bath. The cells were then added to media (10× volume) and the mixture was centrifuged at 1000 RPM for 5 min. The supernate was removed and the cells were re-suspended in media. A sample of the cell suspension was evaluated on a Cedex XS automated cell counter (Innovatis Systems) to determine viable cells/mL. Additional media was added to the cells to achieve a final cell density of 4E5 cells/mL. The cells were then plated into 384 well PDL white solid bottom plates (Greiner, Cat#781945) at 20 μL per well using a Multidrop (Thermo Scientific). Cells were removed from Row P (location of cAMP standards). Two columns of cells were plated into a clear bottom 384 well PDL coated plate (Greiner, Cat#781944) to view confluence the day of the assay. The cell plates were lidded and stored for 15 minutes in a hood, then transferred to an incubator (37° C., 5% CO2, 95% humidity) overnight.
(§4) Test compounds were solubilized in DMSO at 10 mM or for pegylated compounds 4 or 1 mM. DMSO was added to all wells of 384 well V bottom polystyrene plate (Greiner, Cat#781280) except to columns 1 and 13, rows O and P and wells M13-M23 and N13-N23. Test compounds (60 μL, 10 mM or 4 mM or 1 mM) were added to Column 1 and 13 (A1 through N1 and A13 through L13). Test compounds were serially diluted ⅓ by transferring and mixing 20 μL sample with 40 μL DMSO.
(§5) DMSO (40 μL) was added to wells of 384 well V bottom polystyrene plate: O2 through O11, M14 through M23, N14 through N23, and O14 through O23. AM630 (also known as [6-iodo-2-methyl-1-[2-(4-morpholinyl)ethyl]-1H-indol-3-yl](4-methoxyphenyl)-methanone, Cayman Chemical, Cat#10006974) (60 μL, 10 mM) was added to 01; and 1-(2,4-dichlorophenyl)-7-[(4-fluorophenyl)methylene]-4,5,6,7-tetrahydro-N-1-piperidinyl-1H-indazole-3-carboxamide (60 μL, 10 mM) was added to N13. The control was serially diluted ⅓ by transferring and mixing 20 μL sample with 40 μL DMSO. This process resulted 11 doses per control, 10 mM to 0.17 μM.
(§6) Cells plated the day prior to the assay in clear bottom plates were viewed on an inverse microscope to ensure confluency in the range of 60-75%. […]

[2] = target: CB-2 receptor (Human CB2R, Cannabinoid receptor 2) (Homo sapiens (Human), UniProt P34972); assay: cAMP HTRF assay, CB-2 in stably transfected HEK-293 cells; assay type: cell-based; settings: 250 nM Forskolin, mean where tested more than once, read-out: CB2 EC50
Excerpt: as §1, §2, §3, §4, §5, §6

Chain of CB-2 receptor (Human CB2R, Cannabinoid receptor 2) (P34972 whole entry): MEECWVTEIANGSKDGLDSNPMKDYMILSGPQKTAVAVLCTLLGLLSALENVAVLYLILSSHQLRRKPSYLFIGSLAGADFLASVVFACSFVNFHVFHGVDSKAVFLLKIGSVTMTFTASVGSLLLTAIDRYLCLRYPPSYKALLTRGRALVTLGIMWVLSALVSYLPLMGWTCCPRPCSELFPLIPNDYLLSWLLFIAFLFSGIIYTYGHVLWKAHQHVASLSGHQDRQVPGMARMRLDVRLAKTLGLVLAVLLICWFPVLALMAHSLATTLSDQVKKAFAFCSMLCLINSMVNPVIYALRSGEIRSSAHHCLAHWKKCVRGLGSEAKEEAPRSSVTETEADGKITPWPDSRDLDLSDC
Chain of CB-1 receptor (Human Cannabinoid receptor 1) (P21554 whole entry): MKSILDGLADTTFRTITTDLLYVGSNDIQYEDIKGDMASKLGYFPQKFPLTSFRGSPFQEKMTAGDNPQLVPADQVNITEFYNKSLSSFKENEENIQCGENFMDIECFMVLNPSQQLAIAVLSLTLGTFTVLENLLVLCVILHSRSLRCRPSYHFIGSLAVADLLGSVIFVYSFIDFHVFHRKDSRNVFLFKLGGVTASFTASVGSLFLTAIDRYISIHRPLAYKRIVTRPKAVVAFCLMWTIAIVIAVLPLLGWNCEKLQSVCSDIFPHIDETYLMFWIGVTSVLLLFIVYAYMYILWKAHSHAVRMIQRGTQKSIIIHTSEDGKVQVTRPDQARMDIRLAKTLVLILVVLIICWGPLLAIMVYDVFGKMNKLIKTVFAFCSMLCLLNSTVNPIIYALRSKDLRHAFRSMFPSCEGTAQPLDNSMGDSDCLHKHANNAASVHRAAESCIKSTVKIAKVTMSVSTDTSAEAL

| EC50 [1] [nM] | EC50 [2] [µM] | SMILES |
| --- | --- | --- |
| 150 | > 10 | O=S(=O)(N1CCC(Nc2cc(OCCOCCOCCOCCOCCOCCO)nc3ccc(C(c4ccc(Cl)cc4)c4ccc(Cl)cc4)cc23)CC1)C(F)(F)F [Cpd 9] |
| 390 | > 10 | COCCOCCOCCOCCn1c(=O)cc(NC2CCN(S(=O)(=O)C(F)(F)F)CC2)c2cc(C(c3ccc(Cl)cc3)c3ccc(Cl)cc3)ccc21 [Cpd 21] |
| 240 | 4.06 | COCCOCCOCCOCCOCCOCCOCCOCCOCCOCCOCCOCCNC(=O)OCc1ccc(OCCOCCOCCOCCOCCOCCOc2cc(NC3CCN(S(=O)(=O)C(F)(F)F)CC3)c3cc(C(c4ccc(Cl)cc4)c4ccc(Cl)cc4)ccc3n2)cc1 [Cpd 13] |
| 47 | 3.3 | COCCOCCOc1ccc(Nc2cc(=O)[nH]c3ccc(C(c4ccc(Cl)cc4)c4ccc(Cl)cc4)cc23)cc1 [Cpd 20, 6-[bis(4-chlorophenyl)methyl]-4-([4-[2-(2-methoxyethoxy)ethoxy]phenyl]amino)quinolin-2-ol] |
| 61 | 3.11 | O=S(=O)(N1CCC(Nc2cc(OCCOCCOCCOCCOCCOCCOc3ccc(CO)cc3)nc3ccc(C(c4ccc(Cl)cc4)c4ccc(Cl)cc4)cc23)CC1)C(F)(F)F [Cpd 11] |
| 52 | > 10 | O=S(=O)(N1CCC(Nc2cc(OCCOCCOCCO)nc3ccc(C(c4ccc(Cl)cc4)c4ccc(Cl)cc4)cc23)CC1)C(F)(F)F [Cpd 8] |
| 77 | 0.74 | O=C(O)CCOCCOCCOCCOCCOCCOCCOCCOCCOCCOCCOCCOCCOc1cc(C(c2ccc(Cl)cc2)c2ccc(Cl)cc2)cc2c(NC3CCN(S(=O)(=O)C(F)(F)F)CC3)ccnc12 [Cpd 17] |
| 94 | 5.4 | NNC(=O)CCOCCOCCOCCOCCOCCOCCOCCOCCOCCOCCOCCOCCNC(=O)OCCOCCOCCOc1cc(NC2CCN(S(=O)(=O)C(F)(F)F)CC2)c2cc(C(c3ccc(Cl)cc3)c3ccc(Cl)cc3)ccc2n1 [Cpd 12] |
| 19 | 3 | COCCOCCOCCOCCOCCOCCOCCOCCOCCOCCOCCOCCNC(=O)CCCCCOc1cc(NC2CCN(S(=O)(=O)C(F)(F)F)CC2)c2cc(C(c3ccc(Cl)cc3)c3ccc(Cl)cc3)ccc2n1 [Cpd 6] |
